Assay results: patent US10398142B2, “Polycationic amphiphiles as antimicrobial agents” (priority 2013, dated 2019)
Where two headings read alike, the source gives them in different places. Marks after values point to notes of the source that are not given here.

Columns and labels:
[1] = test system: Enterococcus faecalis (OG1RF); experiment: Minimum inhibitory concentration (MIC), broth microdilution; type: cell-based; conditions: for MIC: read-out: MIC E. faecalis
Method: (§1) The term “minimum inhibitory concentration (MIC)” means the lowest concentration of an antimicrobial agent that will inhibit the visible growth of a microorganism after overnight incubation. MIC values against bacteria, for example, the Gram-positive Staphylococcus aureus and Enterococcus faecalis and the Gram-negative Escherichia coli and Pseudomonas aeruginosa were determined by standard methods.
(§2) With nearly three-dozen amphiphiles varying in structure and cationic nature synthesized, minimum inhibitory concentration (MIC) values against the Gram-positive Staphylococcus aureus and Enterococcus faecalis and the Gram-negative Escherichia coli and Pseudomonas aeruginosa were determined by standard methods. […] The commercially available antibacterial agent benzalkonium chloride (benzyldimethyldodecylammonium chloride, Bn,12) was tested for comparison. The broth microdilution for determining MIC values was performed as previously reported.
(§3) Different biological assays were performed. […] All cultures, with the exception of E. faecalis, were grown with shaking at 250 rpm.
(§4) Minimum inhibitory concentration (MIC) values against bacteria were measured using standard method. Compounds were serially diluted two-fold from an aqueous stock solution to yield twelve test concentrations. Overnight S. aureus, E. faecalis, E. coli, P. aeruginosa, CA-MRSA, and HA-MRSA cultures diluted to ca. 10^6 cfu/mL in Mueller-Hinton media and 100 μL were inoculated into each well of a U-bottom 96-well plate (BD Biosciences, BD351177) containing 100 μL of compound solution. Plates were incubated statically at 37° C. for 72 hours upon which time wells were evaluated visually for bacterial growth. The MIC was determined as the lowest concentration of compound resulting in no bacterial growth visible to the naked eye, based on the majority of three independent experiments. Positive and negative aqueous and media controls were conducted for each trial.

[2] = test system: Escherichia coli (MC4100); experiment: as above; type: cell-based; conditions: for MIC: read-out: MIC E. coli
Method: as §1, §2, §3, §4

[3] = test system: Pseudomonas aeruginosa (PAO1); experiment: as above; type: cell-based; conditions: for MIC: read-out: MIC P. aeruginosa
Method: as §1, §2, §3, §4

[4] = test system: Staphylococcus aureus MSSA (SH1000); experiment: as above; type: cell-based
Method: as §1, §2, §3, §4

[5] = test system: CA-MRSA (USA300-0114); experiment: as above; type: cell-based, Staphylococcus aureus
Method: as §3, §4

[6] = test system: HA-MRSA (ATCC 33591); experiment: as above; type: cell-based, Staphylococcus aureus
Method: as §3, §4

[7] = test system: S. aureus (MSSA, SH1000) biofilms; experiment: Minimum biofilm eradication concentration (MBEC), regrowth assay; type: cell-based, Staphylococcus aureus; conditions: for MBEC MSSA: Table 5, SH1000
Text: (§5) A regrowth assay was used to establish the MBEC of a compound to evaluate the antibiofilm activity. See also H. Ceri, M. Olson, D. Morck, D. Storey, R. Read, A. Buret, B. Olson, Methods Enzymol. 2001, 337, 377.
(§6) Encouraged by the potency of the QACs against planktonic bacterial cells, the inventors then evaluated the efficacy of compound (12,2,12) against Staphylococcus aureus and Enterococcus faecalis biofilms. […] To both accurately evaluate the antibiofilm activity, a regrowth assay was utilized to establish the minimum biofilm eradication concentration (MBEC) of each compound.
(§7) Different biological assays were performed. For all biological assays, laboratory strains of methicillin-susceptible Staphylococcus aureus MSSA (SH1000), Enterococcus faecalis (OG1RF), Escherichia coli (MC4100), Pseudomonas aeruginosa (PAO1), community-acquired methicillin-resistant Staphylococcus aureus CA-MRSA (USA300-0114), and hospital-acquired methicillin-resistant Staphylococcus aureus HA-MRSA (ATCC 33591) were grown at 37° C. overnight from freezer stocks in 10 mL of the media indicated for each assay. All cultures, with the exception of E. faecalis, were grown with shaking at 250 rpm.
(§8) Minimum biofilm eradication concentration (MBEC) was also measured. To each well of a flat-bottomed 96-well plate (Corning 3370), 8 μL of overnight bacterial culture was brought to a volume of 200 μL with fresh media (BHI for S. aureus and MRSA, Todd Hewitt (TH) for E. faecalis). Plates were incubated statically for 24 hours at 37° C. to establish biofilms. After 24 hours, the wells were carefully emptied by inverting the plate and gently shaking. A pre-mixed solution of media and aqueous compound stock solution was added to each well and plates were incubated at 37° C. 16 hours after pre-established biofilms were treated with compound, the media from each well was removed, biofilms were washed three times with 200 μL PBS to remove planktonic cells, and biofilms were incubated overnight at 37° C. in 200 μL of fresh media to allow any viable cells to continue growing. The wells were then vigorously pipetted to resuspend the biofilm cells and the OD at 595 nm was measured using a plate reader (POLARstar Omega, BMG Labtech). Biofilms reaching a final OD of less than 0.1 were considered eradicated and the lowest concentration of antibiotic corresponded to the MBEC. Four replicates were completed for each concentration of compound as well as positive and negative controls.

[8] = test system: E. faecalis biofilms; experiment: as above; type: cell-based, Enterococcus faecalis
Text: as §5, §6, §7, §8

[9] = test system: CA-MRSA (USA300-0114) biofilms; experiment: as above; type: cell-based, Staphylococcus aureus; conditions: for MBEC CA-MRSA: Table 5, USA300-0114
Method: as §5, §7, §8

[10] = test system: red blood cells (defibrinated sheep blood); experiment: Hemolysis assay (Lysis20); conditions: Table 4; concentration at which less than 20% of red blood cells are lysed
Method: Hemolysis assays (Lysis20) were performed according to the procedure detailed in Peng, L., DeSousa, J., Su, Z., Novak, B. M., Nevzorov, A. A., Garland, E. R., and Melander, C., Inhibition of Acinetobacter baumannii biofilm formation on a methacrylate polymer containing a 2-aminoimidazole subunit, Chem. Comm. 2011, 47, 4896-4898. Defibrinated sheep blood was purchased from Hemostat Labs (DSB 100). Compounds representative of each class were serially diluted in sterile PBS from aqueous stock solutions and incubated with resuspended blood cells. The OD of the final suspensions were measured directly using plate reader. TritonX (1% by volume) served as a positive control (100% lysis marker) and sterile PBS served as a negative control (0% lysis marker).
Lysis20 indicates the concentration of compound (in μM) at which less than 20% of red blood cells are lysed.

[11] = Table 1, read-out: MIC S. aureus
[12] = Table 3, read-out: MIC S. aureus
[13] = Table 4, SH1000, read-out: MIC MSSA
[14] = Table 4, USA300-0114, read-out: MIC CA-MRSA
[15] = Table 4, ATCC 33591, read-out: MIC HA-MRSA
[16] = Table 2, pre-established biofilm, ± values varied between 50 and 100 μM for the six trials
[17] = table for compound (12,3,11-SH,3,12)

Compound	MIC ([1]; Table 1) [µM]	MIC ([1]; Table 3) [µM]	MIC ([2]; Table 1) [µM]	MIC ([2]; Table 3) [µM]	MIC ([3]; Table 1) [µM]	MIC ([3]; Table 3) [µM]	MIC [4, 11] [µM]	MIC [4, 12] [µM]	MIC [4, 13] [µM]	MIC [5, 14] [µM]	MIC [6, 15] [µM]	MBEC S. aureus [7, 16]	MBEC MSSA [7] [µM]	MBEC E. faecalis [8, 16]	MBEC E. faecalis ([8]; Table 5) [µM]	MBEC CA-MRSA [9] [µM]	Lysis20 [10] [µM]	also measured
CCCCCCCCCCCC[N+](C)(C)CCCCC[N+](C)(C)CCCCCCCCCCCC.[Br-].[Br-] [12,5,12]	1	1	1	1	4	2	1	2	2	1	0.5	75 ± 25^a μM	50	75 ± 25^a μM	100	100	8	
CCCCCCCCCCCCCCCC[N+](C)(C)CCCCC[N+](C)(C)CCCCCCCCCCCCCCCC.[Br-].[Br-] [16,5,16]		2		16		32		2	2	8	1		200		≥200	>200	4	
CCCCCCCCCCCC[N+](C)(C)CCC[N+](C)(CCC[N+](C)(C)CCCCCCCCCCCC)Cc1ccc(CCCCCCCC)cc1.[Br-].[Br-].[Br-] [12,3,Bn-8,3,12]		1		1		4		1	2	2	1		200		200	>200	8	
C=CC[N+](C)(CC[N+](C)(C)CCCCCCCCCCCC)CC[N+](C)(C)CCCCCCCCCCCC.[Br-].[Br-].[Br-] [12,2,3A,2,12]		2		2		4		2	2	1	1		50		75 ± 25	100	2	
CCCCCCCCCCCC[N+](C)(C)CC[CH-][N+](C)(CCCCCCCCCCCS)CCC[N+](C)(C)CCCCCCCCCCCC (centres unmarked) [12,3,11-SH,3,12]													200		>200	>200	16	MIC ([1]; Enterococcus faecalis, table for compound (12,3,11-SH,3,12)): 2 µM; MIC ([2]; Escherichia coli, table for compound (12,3,11-SH,3,12)): 2 µM; MIC ([3]; Pseudomonas aeruginosa, PAO1, table for compound (12,3,11-SH,3,12)): 8 µM; MIC ([4]; Staphylococcus aureus, MSSA, Table 4, SH1000, read-out: MIC MSSA): 2 µM; MIC ([4]; Staphylococcus aureus, MSSA, table for compound (12,3,11-SH,3,12), read-out: MIC S. aureus): 2 µM; MIC ([5]; Staphylococcus aureus, Table 4, USA300-0114, read-out: MIC CA-MRSA): 2 µM; MIC ([5]; Staphylococcus aureus, table for compound (12,3,11-SH,3,12), read-out: MIC USA300-0114): 2 µM; MIC ([6]; Staphylococcus aureus, Table 4, ATCC 33591, read-out: MIC HA-MRSA): 2 µM; MIC ([6]; Staphylococcus aureus, table for compound (12,3,11-SH,3,12), read-out: MIC ATCC 33591): 2 µM; MBEC S. aureus [7, 17]: 200 µM; MBEC E. faecalis [8, 17]: >200 µM; MBEC USA300-0114 [9, 17]: >200 µM
CCCCCCCCCCCC[N+](C)(C)CCN(C)CC[N+](C)(C)CCCCCCCCCCCC.[Br-].[Br-] [12,2,0,2,12]	2	1	1	2	4	4	1	1	1	1	0.5	75 ± 25^a μM	75 ± 25	100 µM	100	100	8	
CCCCCCCCCCCC[N+](C)(C)CC[N+](C)(C)CC[N+](C)(C)CCCCCCCCCCCC.[Br-].[Br-].[I-] [12,2,1,2,12]	≤0.25		0.5		1		≤0.25		1	1	1	50 µM	200	25 µM	>200	≥200	16	MIC E. faecalis ([1]; Table 3): ≤0.25-4^a μM; MIC E. coli ([2]; Table 3): 0.5-4^a μM; MIC P. aeruginosa ([3]; Table 3): 1-8^a μM; MIC S. aureus ([4]; Table 3): ≤0.25-4^a μM
CCCCCCCCCCCC[N+](C)(C)CCC[N+](C)(CCCCCCCCCCCC)CCC[N+](C)(C)CCCCCCCCCCCC.[Br-].[Br-].[Br-] [12,3,12,3,12]		1		1		4		0.5	0.5	1	1		100		200	>200	4	
CCCCCCCCCCCC[N+](C)(C)CCC[N+](C)(CCC[N+](C)(C)CCCCCCCCCCCC)Cc1ccccc1.[Br-].[Br-].[Br-] [12,3,Bn,3,12]		1		1		2		1	2	1	1		100		100	200	8	
